Measurements published in patent US20240059671A1, “TYROSINE KINASE 2 (TYK2) DEGRADATION COMPOUNDS AND METHODS OF USE” (CULLGEN (SHANGHAI), INC., priority 2020, published 2024).

Target: TYK2 (Homo sapiens, UniProt P29597)
Assay: TYK2 protein degradation in MOLT-4 cells by immunoblotting
Type: cell-based
Parameters: endogenous in cells; host or cells: MOLT-4
Settings: MOLT-4 cells, 24 hours
Summary of the method: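 Percent TYK2 degradation came from densitometry of chemiluminescent immunoblots of RIPA lysates. Before lysis, MOLT-4 cells had been treated for 24 h with each compound at 0.5 or 5 μM.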

TYK2, sequence (P29597 whole entry): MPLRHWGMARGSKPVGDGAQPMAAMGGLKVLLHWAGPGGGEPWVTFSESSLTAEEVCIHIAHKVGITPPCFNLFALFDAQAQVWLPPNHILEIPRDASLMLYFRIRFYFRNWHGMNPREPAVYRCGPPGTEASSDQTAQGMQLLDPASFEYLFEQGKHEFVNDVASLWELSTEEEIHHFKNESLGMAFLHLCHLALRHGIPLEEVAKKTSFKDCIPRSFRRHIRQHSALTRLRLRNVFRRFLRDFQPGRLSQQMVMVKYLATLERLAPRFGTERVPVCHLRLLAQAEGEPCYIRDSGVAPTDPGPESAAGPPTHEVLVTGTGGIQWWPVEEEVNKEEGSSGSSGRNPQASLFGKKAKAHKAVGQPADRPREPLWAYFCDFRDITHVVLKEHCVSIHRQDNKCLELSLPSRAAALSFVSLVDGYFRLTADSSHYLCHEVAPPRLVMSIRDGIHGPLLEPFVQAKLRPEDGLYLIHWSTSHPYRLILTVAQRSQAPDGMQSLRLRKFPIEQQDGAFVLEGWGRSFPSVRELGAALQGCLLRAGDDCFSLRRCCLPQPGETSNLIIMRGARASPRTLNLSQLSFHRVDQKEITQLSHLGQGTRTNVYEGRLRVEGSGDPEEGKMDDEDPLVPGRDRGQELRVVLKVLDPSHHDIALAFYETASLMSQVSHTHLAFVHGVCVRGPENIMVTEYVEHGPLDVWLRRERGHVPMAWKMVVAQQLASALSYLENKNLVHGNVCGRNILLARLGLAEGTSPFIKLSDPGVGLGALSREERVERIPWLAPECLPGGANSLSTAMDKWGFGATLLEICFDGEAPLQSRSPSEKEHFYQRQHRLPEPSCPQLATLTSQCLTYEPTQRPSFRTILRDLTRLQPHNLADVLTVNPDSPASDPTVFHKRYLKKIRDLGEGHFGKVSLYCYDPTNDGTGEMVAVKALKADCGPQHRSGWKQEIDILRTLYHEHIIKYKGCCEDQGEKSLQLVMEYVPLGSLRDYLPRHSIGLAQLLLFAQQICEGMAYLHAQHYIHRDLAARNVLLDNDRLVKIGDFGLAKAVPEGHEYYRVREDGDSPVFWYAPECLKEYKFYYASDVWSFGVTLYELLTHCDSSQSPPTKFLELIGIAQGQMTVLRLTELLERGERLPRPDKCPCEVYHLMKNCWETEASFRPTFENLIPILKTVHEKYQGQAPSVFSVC

Row | SMILES | TYK2 Degradation (MOLT-4, 0.5 μM) (0.5 μM) | TYK2 Degradation (0.5 μM) | TYK2 Degradation (5 μM)
1 | CNC(=O)c1nnc(NC(=O)CNC(=O)CCNC(=O)C[C@H](NC(=O)[C@@H]2C[C@@H](O)CN2C(=O)[C@@H](NC(=O)C2(F)CC2)C(C)(C)C)c2ccc(-c3scnc3C)cc2)cc1Nc1cccc(-c2ncn(C)n2)c1OC [CPD-087, 6-(2-(3-((S)-3-((2S,4R)-1-((S)-2-(1-Fluorocyclopropane-1-carboxamido)-3,3-dimethylbutanoyl)-4-hydroxypyrrolidine-2-carboxamido)-3-(4-(4-methylthiazol-5-yl)phenyl)propanamido)propanamido)acetamido)-4-((2-methoxy-3-(1-methyl-1H-1,2,4-triazol-3-yl)phenyl)amino)-N-methylpyridazine-3-carboxamide] | C (C: ≤20% TYK2 degradation) | – | –
2 | CNC(=O)c1nnc(NC(=O)CNC(=O)CCOCCC(=O)N[C@H](C(=O)N2C[C@H](O)C[C@H]2C(=O)NCc2ccc(-c3scnc3C)cc2)C(C)(C)C)cc1Nc1cccc(-c2ncn(C)n2)c1OC [CPD-026, 6-(2-(3-(3-(((S)-1-((2S,4R)-4-Hydroxy-2-((4-(4-methylthiazol-5-yl)benzyl)carbamoyl)pyrrolidin-1-yl)-3,3-dimethyl-1-oxobutan-2-yl)amino)-3-oxopropoxy)propanamido)acetamido)-4-((2-methoxy-3-(1-methyl-1H-1,2,4-triazol-3-yl)phenyl)amino)-N-methylpyridazine-3-carboxamide] | – | ≤20% | ≤20%
3 | CNC(=O)c1nnc(NC(=O)C2CC2)cc1Nc1cccc(-c2ncn(CCNC(=O)CCCCCCCNc3ccc4c(c3)C(=O)N(C3CCC(=O)NC3=O)C4=O)n2)c1OC (centres unmarked) [CPD-024, 6-(Cyclopropanecarboxamido)-4-((3-(1-(2-(8-((2-(2,6-dioxopiperidin-3-yl)-1,3-dioxoisoindolin-5-yl)amino)octanamido)ethyl)-1H-1,2,4-triazol-3-yl)-2-methoxyphenyl)amino)-N-methylpyridazine-3-carboxamide] | – | ≤20% | 30%
4 | CNC(=O)c1nnc(NC(=O)CNC(=O)CCC(=O)N[C@H](C(=O)N2C[C@H](O)C[C@H]2C(=O)NCc2ccc(-c3scnc3C)cc2)C(C)(C)C)cc1Nc1cccc(-c2ncn(C)n2)c1OC [CPD-034, N^1—((S)-1-((2S,4R)-4-Hydroxy-2-((4-(4-methylthiazol-5-yl)benzyl)carbamoyl)pyrrolidin-1-yl)-3,3-dimethyl-1-oxobutan-2-yl)-N^4-(2-((5-((2-methoxy-3-(1-methyl-1H-1,2,4-triazol-3-yl)phenyl)amino)-6-(methylcarbamoyl)pyridazin-3-yl)amino)-2-oxoethyl)succinamide] | – | ≤20% | ≤20%
5 | CNC(=O)c1nnc(NC(=O)C2CC2)cc1Nc1cccc(-c2ncn(CCNC(=O)CCC(=O)N[C@H](C(=O)N3C[C@H](O)C[C@H]3C(=O)NCc3ccc(-c4scnc4C)cc3)C(C)(C)C)n2)c1OC [CPD-075, N^1-(2-(3-(3-((6-(Cyclopropanecarboxamido)-3-(methylcarbamoyl)pyridazin-4-yl)amino)-2-methoxyphenyl)-1H-1,2,4-triazol-1-yl)ethyl)-N^4-((S)-1-((2S,4R)-4-hydroxy-2-((4-(4-methylthiazol-5-yl)benzyl)carbamoyl)pyrrolidin-1-yl)-3,3-dimethyl-1-oxobutan-2-yl)succinamide] | – | ≤20% | ≤20%
6 | CNC(=O)c1nnc(NC(=O)CNC(=O)CCOCCOCCOCCOCCNc2ccc3c(c2)C(=O)N(C2CCC(=O)NC2=O)C3=O)cc1Nc1cccc(-c2ncn(C)n2)c1OC (centres unmarked) [CPD-064, 6-(1-((2-(2,6-Dioxopiperidin-3-yl)-1,3-dioxoisoindolin-5-yl)amino)-15-oxo-3,6,9,12-tetraoxa-16-azaoctadecan-18-amido)-4-((2-methoxy-3-(1-methyl-1H-1,2,4-triazol-3-yl)phenyl)amino)-N-methylpyridazine-3-carboxamide] | – | ≤20% | ≤20%
